Structures are written as SMILES.

For assay [1], the target named is T1, Serine/threonine-protein kinase Sgk3 (Homo sapiens) (UniProt Q96BR1).
T1 sequence (whole entry): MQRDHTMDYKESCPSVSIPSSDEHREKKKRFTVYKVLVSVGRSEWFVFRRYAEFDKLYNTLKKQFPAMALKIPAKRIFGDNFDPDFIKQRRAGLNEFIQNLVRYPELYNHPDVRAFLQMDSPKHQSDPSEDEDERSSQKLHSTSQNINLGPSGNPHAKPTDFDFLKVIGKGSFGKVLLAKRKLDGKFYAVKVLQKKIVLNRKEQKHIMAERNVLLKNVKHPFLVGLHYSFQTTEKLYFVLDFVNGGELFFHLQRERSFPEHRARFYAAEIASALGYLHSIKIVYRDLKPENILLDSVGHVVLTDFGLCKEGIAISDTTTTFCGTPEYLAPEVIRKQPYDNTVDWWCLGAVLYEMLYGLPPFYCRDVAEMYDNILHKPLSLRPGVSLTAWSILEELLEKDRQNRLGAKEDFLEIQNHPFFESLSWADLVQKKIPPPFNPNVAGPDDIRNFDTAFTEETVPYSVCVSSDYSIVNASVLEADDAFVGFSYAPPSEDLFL
Briefly: Inhibition of human full length SGK3 expressed in baculovirus assessed as substrate phosphorylation using fluorescence-labelled peptides as substrate at 420 uM after 90 mins by microfluidic peptide phosphorylation assay.

In assay [2] the target is T2, Inhibitor of nuclear factor kappa-B kinase subunit beta (Homo sapiens) (UniProt O14920).
T2 sequence (whole entry): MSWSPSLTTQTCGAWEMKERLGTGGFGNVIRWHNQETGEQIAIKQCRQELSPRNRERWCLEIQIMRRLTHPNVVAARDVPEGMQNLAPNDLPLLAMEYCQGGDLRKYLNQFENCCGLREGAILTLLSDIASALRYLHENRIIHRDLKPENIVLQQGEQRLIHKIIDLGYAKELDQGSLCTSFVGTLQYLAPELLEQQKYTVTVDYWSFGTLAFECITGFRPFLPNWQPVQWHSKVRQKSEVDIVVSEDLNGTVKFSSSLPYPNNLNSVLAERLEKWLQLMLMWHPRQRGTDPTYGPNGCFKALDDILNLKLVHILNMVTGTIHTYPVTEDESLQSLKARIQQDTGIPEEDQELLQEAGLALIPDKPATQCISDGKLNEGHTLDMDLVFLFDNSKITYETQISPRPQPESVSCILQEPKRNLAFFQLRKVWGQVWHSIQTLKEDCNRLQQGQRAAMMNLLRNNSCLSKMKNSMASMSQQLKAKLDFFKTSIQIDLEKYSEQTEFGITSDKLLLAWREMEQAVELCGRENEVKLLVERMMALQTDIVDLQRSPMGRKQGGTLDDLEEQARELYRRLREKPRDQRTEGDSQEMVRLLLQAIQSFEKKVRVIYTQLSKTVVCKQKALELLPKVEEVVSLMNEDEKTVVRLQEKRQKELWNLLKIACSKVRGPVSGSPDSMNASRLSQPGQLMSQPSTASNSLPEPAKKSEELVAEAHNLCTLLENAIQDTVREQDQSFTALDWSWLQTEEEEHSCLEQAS
Kind of assay: Inhibition of human full length IKK beta expressed in baculovirus assessed as substrate phosphorylation using fluorescence-labelled peptides as substrate at 420 uM after 90 mins by microfluidic peptide phosphorylation assay.

In assay [3] the target is T3, Protein kinase C epsilon type (Homo sapiens) (UniProt Q02156).
T3 sequence (whole entry): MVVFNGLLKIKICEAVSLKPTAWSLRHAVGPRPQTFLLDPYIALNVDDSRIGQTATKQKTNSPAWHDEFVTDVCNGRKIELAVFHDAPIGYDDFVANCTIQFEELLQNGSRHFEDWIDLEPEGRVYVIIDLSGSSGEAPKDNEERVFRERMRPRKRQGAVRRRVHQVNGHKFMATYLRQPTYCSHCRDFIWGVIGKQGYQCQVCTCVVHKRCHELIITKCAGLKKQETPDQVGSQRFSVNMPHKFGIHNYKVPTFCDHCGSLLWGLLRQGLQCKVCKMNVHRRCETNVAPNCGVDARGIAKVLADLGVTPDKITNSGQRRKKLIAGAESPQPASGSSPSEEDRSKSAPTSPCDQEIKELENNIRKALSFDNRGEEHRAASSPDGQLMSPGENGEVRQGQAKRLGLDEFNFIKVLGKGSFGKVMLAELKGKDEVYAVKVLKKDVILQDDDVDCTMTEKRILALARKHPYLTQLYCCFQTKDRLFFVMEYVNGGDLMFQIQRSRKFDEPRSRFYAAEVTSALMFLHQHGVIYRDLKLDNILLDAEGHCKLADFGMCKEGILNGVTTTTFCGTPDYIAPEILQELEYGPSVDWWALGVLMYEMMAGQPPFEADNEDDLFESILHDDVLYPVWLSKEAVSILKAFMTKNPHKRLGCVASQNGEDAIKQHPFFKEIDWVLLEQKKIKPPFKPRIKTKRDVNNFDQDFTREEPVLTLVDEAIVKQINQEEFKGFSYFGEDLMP
Kind of assay: Inhibition of human truncated PKC epsilon expressed in baculovirus assessed as substrate phosphorylation using fluorescence-labelled peptides as substrate at 420 uM after 90 mins by microfluidic peptide phosphorylation assay.

Assay [4] deals with Protein kinase C theta type (Homo sapiens) (UniProt Q04759). Kind of assay: Inhibition of human truncated PKC theta expressed in baculovirus assessed as substrate phosphorylation using fluorescence-labelled peptides as substrate at 0.1 uM after 90 mins by microfluidic peptide phosphorylation assay.
Sequence of Protein kinase C theta type (Homo sapiens) (Q04759 whole entry, looked up, the tested form may be a part): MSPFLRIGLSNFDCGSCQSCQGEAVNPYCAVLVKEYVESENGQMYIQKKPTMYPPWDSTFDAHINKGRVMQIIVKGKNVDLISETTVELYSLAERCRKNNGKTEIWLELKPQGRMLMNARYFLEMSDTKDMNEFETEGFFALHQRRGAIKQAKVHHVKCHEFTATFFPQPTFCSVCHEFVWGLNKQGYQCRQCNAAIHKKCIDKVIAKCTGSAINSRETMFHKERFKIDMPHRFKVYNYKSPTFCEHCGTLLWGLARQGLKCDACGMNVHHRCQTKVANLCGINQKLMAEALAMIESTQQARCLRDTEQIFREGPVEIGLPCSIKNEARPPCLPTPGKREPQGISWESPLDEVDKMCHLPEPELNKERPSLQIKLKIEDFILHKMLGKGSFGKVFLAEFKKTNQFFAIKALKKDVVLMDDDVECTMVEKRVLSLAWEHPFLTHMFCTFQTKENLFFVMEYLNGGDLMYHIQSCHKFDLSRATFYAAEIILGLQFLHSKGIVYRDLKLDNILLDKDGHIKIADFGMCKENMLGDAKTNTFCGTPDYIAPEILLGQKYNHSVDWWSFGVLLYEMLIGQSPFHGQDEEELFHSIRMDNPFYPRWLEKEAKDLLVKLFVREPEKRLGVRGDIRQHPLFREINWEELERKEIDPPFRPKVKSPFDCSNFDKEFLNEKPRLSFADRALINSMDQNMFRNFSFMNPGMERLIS
Assay [5] addresses Insulin-like growth factor 1 receptor (Homo sapiens) (UniProt P08069). Briefly: Inhibition of human IGF1R catalytic domain expressed in baculovirus assessed as substrate phosphorylation using fluorescence-labelled peptides as substrate at 0.06 uM after 90 mins by microfluidic peptide phosphorylation assay.
Assay [6] addresses Aurora kinase B (Homo sapiens) (UniProt Q96GD4). Briefly: Inhibition of human full length AurB expressed in baculovirus assessed as substrate phosphorylation using fluorescence-labelled peptides as substrate at 95 uM after 90 mins by microfluidic peptide phosphorylation assay.
Assay [7] addresses Platelet-derived growth factor receptor alpha (Homo sapiens) (UniProt P16234). Kind of assay: Inhibition of human PDGFR alpha catalytic domain expressed in baculovirus assessed as substrate phosphorylation using fluorescence-labelled peptides as substrate at […] after 90 mins by microfluidic peptide phosphorylation assay.
Assay [8] concerns the target Tyrosine-protein kinase Lyn (Homo sapiens) (UniProt P07948). Kind of assay: Inhibition of human full length LYN expressed in baculovirus assessed as substrate phosphorylation using fluorescence-labelled peptides as substrate at […] after 90 mins by microfluidic peptide phosphorylation assay.

Sequence of Tyrosine-protein kinase Lyn (Homo sapiens) (P07948 2-512 limits assumed): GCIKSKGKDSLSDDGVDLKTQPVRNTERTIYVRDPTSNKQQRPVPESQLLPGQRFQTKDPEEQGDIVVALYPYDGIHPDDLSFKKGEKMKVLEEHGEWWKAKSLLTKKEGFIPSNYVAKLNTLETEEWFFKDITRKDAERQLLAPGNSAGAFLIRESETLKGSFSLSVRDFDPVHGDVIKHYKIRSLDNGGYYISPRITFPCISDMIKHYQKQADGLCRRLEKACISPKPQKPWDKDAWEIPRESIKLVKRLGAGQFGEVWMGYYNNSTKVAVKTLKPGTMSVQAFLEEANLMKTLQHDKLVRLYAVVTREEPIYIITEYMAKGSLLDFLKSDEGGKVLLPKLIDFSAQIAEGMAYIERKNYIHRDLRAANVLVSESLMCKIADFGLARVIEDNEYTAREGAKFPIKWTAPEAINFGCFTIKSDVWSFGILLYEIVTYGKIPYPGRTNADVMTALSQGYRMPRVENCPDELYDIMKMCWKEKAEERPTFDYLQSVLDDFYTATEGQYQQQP
Sequence of Aurora kinase B (Homo sapiens) (Q96GD4 whole entry, the tested form may be a part): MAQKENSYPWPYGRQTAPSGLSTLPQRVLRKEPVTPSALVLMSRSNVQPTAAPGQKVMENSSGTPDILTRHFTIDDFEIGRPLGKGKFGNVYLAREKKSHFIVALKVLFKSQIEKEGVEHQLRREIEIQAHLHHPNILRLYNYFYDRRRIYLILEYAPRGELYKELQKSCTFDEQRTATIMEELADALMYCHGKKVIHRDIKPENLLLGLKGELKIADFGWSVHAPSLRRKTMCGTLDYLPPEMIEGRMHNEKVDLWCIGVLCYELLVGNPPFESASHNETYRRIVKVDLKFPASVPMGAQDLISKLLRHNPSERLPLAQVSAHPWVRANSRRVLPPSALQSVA
Sequence of Platelet-derived growth factor receptor alpha (Homo sapiens) (P16234 whole entry, the tested form may be a part): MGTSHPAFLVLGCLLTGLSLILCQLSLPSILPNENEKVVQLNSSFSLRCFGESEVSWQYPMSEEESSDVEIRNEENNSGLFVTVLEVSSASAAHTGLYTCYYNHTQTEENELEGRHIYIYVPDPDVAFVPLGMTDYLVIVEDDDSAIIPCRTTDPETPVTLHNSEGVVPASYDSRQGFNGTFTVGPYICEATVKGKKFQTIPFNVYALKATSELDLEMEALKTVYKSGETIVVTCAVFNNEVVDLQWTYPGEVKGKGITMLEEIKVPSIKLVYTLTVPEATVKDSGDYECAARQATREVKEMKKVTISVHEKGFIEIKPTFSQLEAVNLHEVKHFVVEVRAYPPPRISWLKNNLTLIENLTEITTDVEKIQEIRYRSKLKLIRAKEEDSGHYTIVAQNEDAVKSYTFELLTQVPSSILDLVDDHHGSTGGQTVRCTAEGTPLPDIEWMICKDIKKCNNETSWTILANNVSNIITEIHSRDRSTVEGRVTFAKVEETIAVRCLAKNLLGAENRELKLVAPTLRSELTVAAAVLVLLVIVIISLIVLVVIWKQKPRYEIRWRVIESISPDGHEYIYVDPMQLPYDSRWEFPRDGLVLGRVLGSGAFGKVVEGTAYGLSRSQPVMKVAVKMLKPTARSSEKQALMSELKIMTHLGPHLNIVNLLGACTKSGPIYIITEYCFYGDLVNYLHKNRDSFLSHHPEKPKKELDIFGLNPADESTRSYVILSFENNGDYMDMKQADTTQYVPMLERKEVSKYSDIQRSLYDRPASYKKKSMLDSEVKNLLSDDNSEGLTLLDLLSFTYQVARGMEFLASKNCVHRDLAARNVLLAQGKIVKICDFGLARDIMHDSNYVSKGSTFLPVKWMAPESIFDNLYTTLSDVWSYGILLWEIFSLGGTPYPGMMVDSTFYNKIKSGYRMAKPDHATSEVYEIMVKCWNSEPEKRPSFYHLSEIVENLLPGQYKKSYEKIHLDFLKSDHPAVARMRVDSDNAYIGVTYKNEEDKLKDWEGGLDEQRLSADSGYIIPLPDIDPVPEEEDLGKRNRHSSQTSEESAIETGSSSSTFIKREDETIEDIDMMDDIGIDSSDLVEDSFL

Take `c1nc(N2CCOCC2)c2nc[nH]c2n1`: the results for the inhibition in assay [1], in assay [2] and in assay [3] were 63%, 87% and 73.5%, respectively.

As for `C[C@H](CN(C)C)Oc1nc(Nc2cc3cccc(Cl)c3cn2)cnc1C#N`, the inhibition – broadly, the change of the read-out against control, counted positive when it falls – in assay [4] turned out to be 5%. As for `NC1(Cc2ccc(Cl)cc2)CCN(c2ncnc3[nH]ccc23)CC1`, the inhibition in assay [5] came to 0%.

Consider `NCCc1ccc(-c2ncnc3[nH]cnc23)cc1`, for which, in assay [6], the inhibition turned out to be 97%. Regarding `COC(=O)c1cnc(Nc2cnc(C#N)cn2)cc1NCC1CCNCC1`, the inhibition came to 9.5% in assay [7] and 8% in assay [8].

Source of the values: ChEMBL document CHEMBL3132769, “Fragment growing to retain or alter the selectivity of anchored kinase hinge-binding fragments” (Medchemcomm, 2014).
